{"source": "patent US20100137433A1", "about": "“Production of Rosmarinic Acid from Spearmint and uses Thereof” (priority 2007, published 2010)", "key": {"[1]": {"test_system": "mild allergic asthmatic subjects", "assay": "Methacholine inhalation test (methacholine PC20, airway hyper-responsiveness)", "format": "in vivo, human", "details": "tea 2 cups per day for 7 days", "experimental": "(§1) Subjects. Two subjects (45 and 57 year old, male) were recruited for the study. Inclusion criteria required subjects to be non-smokers with stable, mild atopic asthma, free of other lung disease. Subjects were required to have FEV1 (forced expiratory volume in 1 second)>70% of predicted, baseline methacholine PC20 (the provocative concentration of methacholine causing a 20% fall in FEV1)<16 mg/mL, and development of an allergen-induced EAR (at least 20% fall in FEV1 within 2 h post allergen inhalation) and LAR (at least 15% fall FEV1 between 3-7 h post allergen inhalation).\n(§2) Study design. Subjects meeting the inclusion criteria underwent allergen challenge with placebo and rosmarinic acid, in this order, separated by a washout period of at least 4 weeks. Placebo was inhaled PBS on 2 consecutive mornings before challenge. Rosmarinic acid treatment consisted of 7 days of 2 cups of tea per day. Day 6 consisted of pre-dose measurements of airway hyperresponsiveness and sputum cells. On Day 7 allergen inhalation challenge was performed. Measurements of FEV1 were taken at regular intervals until 7 h after challenge and sputum cells were then collected. […]\nMethacholine inhalation challenge was performed as described by Cockcroft (1985). The test was terminated when a fall in FEV1 of 20% of the baseline value occurred, and the methacholine PC20 is calculated."}, "[2]": {"test_system": "seasonal allergic rhinitis", "details": "active treatment; cited from earlier work"}, "[3]": {"test_system": "mild allergic asthmatic subjects", "assay": "Sputum analysis (allergen-induced airway inflammation, sputum eosinophils)", "format": "in vivo, human", "details": "vs placebo, two subjects, FIGS. 4A-4B", "experimental": "as §1, with “(person)” for “(45 and 57 year old, male)”\nas §2\nSputum was induced and processed using the method described by Pizzichini et al. (1996). Differential cell counts were obtained and an aliquot of cells were lysed for quantitative PCR measurements."}, "Aβ25-35-injected mice": {"test_system": "Aβ25-35-injected mice", "details": "Aβ25-35 injection; cited from earlier work"}, "[4]": {"details": "cited from earlier work"}, "[5]": {"assay": "Stability of rosmarinic acid in dried and stored spearmint 700B tissues", "format": "physicochemical", "details": "heated to 80° C. for an additional 24 hours after drying to 11.7% moisture", "experimental": "The level of rosmarinic acid in dried and stored samples of spearmint line 700B tissues was followed over time to determine its stability. Spearmint plant tissue was harvested, dried, and stored, and levels of rosmarinic acid were determined essentially as described by Fletcher et al., (2005a). Plant material was harvested manually from the field and placed in large net bags. The bagged mint […] spread evenly over a grate and dried in a drying oven at a temperature of 35° C. for 96 hours. The stems and other debris were separated from the leaves, and the leaves were crushed to a size suitable for tea. The crushed leaf material was transferred to zip-lock bags and stored at room temperature in the absence of light. Additionally, to study the effect of drying temperature on stability of RA, a sample of spearmint plant material was dried to 11.7% moisture as above for determination of RA content. After 96 hours, a sample of the material was placed into a drying oven and heated to 80° C. for an additional 24 hours, and RA levels were also determined."}, "[6]": {"test_system": "mice exposed to diesel dust particulates", "details": "2 mg/day for 3 days prior to exposure; cited from earlier work"}, "[7]": {"test_system": "mild allergic asthmatic subjects", "assay": "Allergen inhalation challenge (allergen-induced bronchoconstriction, EAR and LAR)", "format": "in vivo, human", "experimental": "as §1, with “(person)” for “(45 and 57 year old, male)”\nas §2\nAllergen challenge was performed as described by O'Byrne (1987), and the concentration of allergen extract (Omega Laboratories, Montreal, QC) for inhalation was determined from a formula described by Cockcroft et al. (1987). […]"}}, "data": [{"smiles": "O=C(/C=C/c1ccc(O)c(O)c1)O[C@H](Cc1ccc(O)c(O)c1)C(=O)O", "note": "[RA, α-O-caffeoyl-3,4-dihydroxyphenyl-lactic acid]", "values": [{"measurement": "Methacholine PC20", "setting": "[1]; subject 19, 24 h post allergen challenge (cat)", "value": 0.38, "unit": "mg/mL"}, {"measurement": "Methacholine PC20", "setting": "[1]; subject 20, 24 h post allergen challenge (HDMDP)", "value": 1.27, "unit": "mg/mL"}, {"measurement": "Numbers of neutrophils and eosinophils in nasal lavage fluid", "setting": "[2]", "value": "significantly decreased"}, {"measurement": "% sputum eosinophils post allergen", "setting": "[3]", "value": "consistently lower"}, {"measurement": "Effective lowest dose preventing Aβ25-35-induced nitration of proteins in the hippocampus", "setting": "Aβ25-35-injected mice", "value": 0.25, "unit": "mg/kg"}, {"measurement": "Recovery of intact rosmarinic acid and metabolites in urine", "setting": "[4]; rat urine", "value": "0.077 % of the amount ingested"}, {"measurement": "Time to full concentration in the blood plasma", "setting": "[4]; rats, absorbed via the small intestine", "value": "≤ 30", "unit": "min"}, {"measurement": "Amount of RA in the tissues before and after the 80° C. drying step", "setting": "[5]", "value": "remained the same"}, {"measurement": "Protein and DNA damage in lung tissue (postmortem histological staining) compared to controls", "setting": "[6]", "value": "marked decrease"}, {"measurement": "Allergen-induced EAR", "setting": "[7]; subject #20, vs placebo, allergen 1:128 dilution with RA, 1:64 with diluent", "value": "lower"}, {"measurement": "Effect on the allergen-induced EAR or LAR", "setting": "[7]; two subjects, limited sample size", "value": "does not appear to have any effect"}]}]}
